Laboratory results as given in DBAASP.
≈ marks a conversion by molar mass, not a printed value. Where “and” joins values, the source holds several entries; their conditions need not be identical. Equal values may be shown once. Each block holds one compound with its values, some of them ahead of it.

How the values were obtained:
Test in all cases: ≥ marks a high value that may be exact or a test limit, other limits are often not marked, values filed in µg/mL are converted to µM
Escherichia coli BL21 = tested on: Escherichia coli BL21
[1] = tested on: Pseudomonas aeruginosa PAO1
[2] = tested on: Streptococcus pyogenes M1T1 5448
[3] = tested on: Batrachochytrium dendrobatidis
[4] = tested on: Escherichia coli ATCC 25726
[5] = tested on: Staphylococcus aureus ATCC 25923
[6] = tested on: Staphylococcus aureus NCTC 8325
[7] = tested on: Pseudomonas aeruginosa H1001
[8] = tested on: Escherichia coli ATCC 25922
[9] = tested on: Acinetobacter baumannii ATCC 17978
[10] = tested on: Escherichia coli ATCC 8739
[11] = tested on: Escherichia coli DSM 1103
[12] = tested on: Pseudomonas aeruginosa DSM 1117
[13] = tested on: Staphylococcus aureus DSM 1104
[14] = tested on: Staphylococcus aureus HNCMO 112011
[15] = tested on: Staphylococcus epidermidis DSM 1798

Structure (SMILES): CC[C@H](C)[C@H](NC(=O)[C@H](Cc1ccccc1)NC(=O)[C@H](C)NC(=O)[C@H](CCCCN)NC(=O)[C@H](CCCCN)NC(=O)CNC(=O)[C@H](CCCN=C(N)N)NC(=O)[C@H](CCCCN)NC(=O)[C@H](CCCN=C(N)N)NC(=O)[C@H](CC(C)C)NC(=O)[C@H](CCC(=O)O)NC(=O)[C@H](CCC(=O)O)NC(=O)[C@H](CC(C)C)NC(=O)[C@H](CC(C)C)NC(=O)[C@H](Cc1ccc(O)cc1)NC(=O)[C@H](CCCCN)NC(=O)[C@@H](NC(=O)[C@H](CC(C)C)NC(=O)[C@H](C)NC(=O)[C@H](CCC(N)=O)NC(=O)[C@H](CCCN=C(N)N)NC(=O)CNC(=O)[C@H](C)N)[C@@H](C)O)C(=O)N[C@@H](Cc1c[nH]c2ccccc12)C(=O)N[C@@H](Cc1c[nH]c2ccccc12)C(=O)O [AGRQALTKYLLEELRKRGKKAFIWW]
MIC (Escherichia coli BL21): 4 µM (≈ 12.3 µg/mL)
MIC [1]: > 128 µM
MIC [2]: 2 µM (≈ 6.13 µg/mL)

Structure (SMILES): CC[C@H](C)[C@H](NC(=O)[C@H](Cc1c[nH]c2ccccc12)NC(=O)[C@H](CCC(N)=O)NC(=O)[C@H](CCCN=C(N)N)NC(=O)CNC(=O)[C@H](C)N)C(=O)N[C@@H](CCCCN)C(=O)N[C@@H](C)C(=O)N[C@@H](Cc1ccc(O)cc1)C(=O)N[C@@H](CC(C)C)C(=O)N[C@@H](CCCN=C(N)N)C(=O)N[C@@H](CCCN=C(N)N)C(=O)N[C@@H](CCC(=O)O)C(=O)N[C@H](C(=O)N[C@@H](CCCN=C(N)N)C(=O)N[C@@H](CCCCN)C(=O)N[C@@H](CCCN=C(N)N)C(=O)NCC(=O)N[C@@H](CCCN=C(N)N)C(=O)N[C@@H](CCCCN)C(=O)N[C@@H](C)C(=O)N[C@H](C(=O)N[C@H](C(=O)N[C@@H](C)C(=O)N[C@@H](Cc1c[nH]c2ccccc12)C(=O)O)[C@@H](C)CC)C(C)C)[C@@H](C)CC [AGRQWIKAYLRREIRKRGRKAVIAW]
MIC (Escherichia coli BL21): 2 µM (≈ 6.17 µg/mL)
MIC [1]: 16 µM (≈ 49.3 µg/mL)
MIC [2]: 2 µM (≈ 6.17 µg/mL)

Structure (SMILES): CC[C@H](C)[C@H](NC(=O)[C@@H]1CCCN1C(=O)[C@H](CC(C)C)NC(=O)[C@@H](N)Cc1ccccc1)C(=O)N[C@H](C(=O)NCC(=O)N[C@@H](CCCCN)C(=O)N[C@@H](CC(C)C)C(=O)N[C@@H](CC(C)C)C(=O)N[C@@H](CO)C(=O)NCC(=O)N[C@@H](CC(C)C)C(=O)N[C@@H](CC(C)C)C(N)=O)C(C)C [FLPIVGKLLSGLL]
MIC [3]: ≥ 49.6 µM
MIC [4]: ≥ 128 µM
MIC [5]: 8 µM (≈ 11 µg/mL)
MIC [6]: ≥ 110 µM

Structure (SMILES): CC(C)C[C@H](NC(=O)[C@H](CCCCN)NC(=O)[C@H](CCC(N)=O)NC(=O)[C@H](CC(N)=O)NC(=O)[C@H](CC(C)C)NC(=O)[C@H](CC(=O)O)NC(=O)[C@H](CCC(=O)O)NC(=O)[C@@H]1CCCN1C(=O)[C@@H](NC(=O)[C@H](C)NC(=O)CN)[C@@H](C)O)C(=O)N[C@@H](CO)C(N)=O [GATPEDLNQKLS]
MIC [7]: ≥ 196 µM

Structure (SMILES): CC[C@H](C)[C@H](NC(=O)[C@H](CCCCN)NC(=O)[C@H](CS)NC(=O)[C@H](C)NC(=O)[C@@H](NC(=O)[C@H](CC(C)C)NC(=O)[C@H](CC(N)=O)NC(=O)[C@@H](NC(=O)CNC(=O)[C@H](CC(C)C)NC(=O)[C@H](CCCNC(=N)N)NC(=O)[C@H](C)NC(=O)[C@H](CC(C)C)NC(=O)[C@H](CC(=O)O)NC(=O)[C@H](CCCCN)NC(=O)CNC(=O)[C@H](CC(C)C)NC(=O)CNC(=O)[C@H](CCCCN)NC(=O)[C@H](CO)NC(=O)[C@H](C)NC(=O)[C@H](Cc1ccccc1)NC(=O)[C@H](CCCCN)NC(=O)[C@H](C)NC(=O)[C@@H](NC(=O)CNC(=O)[C@H](CCCNC(=N)N)NC(=O)[C@H](Cc1ccccc1)NC(=O)[C@@H](NC(=O)[C@H](CO)NC(=O)[C@H](CO)NC(=O)[C@H](Cc1ccccc1)NC(=O)CN)[C@@H](C)CC)C(C)C)C(C)C)C(C)C)C(=O)N[C@@H](CO)C(=O)N[C@@H](CCCCN)C(=O)N[C@@H](CCC(N)=O)C(=O)N[C@@H](CS)C(=O)O [GFSSIFRGVAKFASKGLGKDLARLGVNLVACKISKQC]
MIC [3]: ≥ 50 µM and 25 µM
MIC [8]: 10 µM (≈ 38.7 µg/mL)

Structure (SMILES): CC[C@H](C)[C@H](NC(=O)[C@H](CCCCN)NC(=O)[C@H](CCCCN)NC(=O)[C@H](C)NC(=O)[C@H](CC(C)C)NC(=O)[C@H](C)NC(=O)[C@H](C)NC(=O)[C@H](CC(C)C)NC(=O)[C@H](C)NC(=O)[C@H](CCCCN)NC(=O)[C@H](CC(C)C)NC(=O)[C@H](CC(N)=O)NC(=O)[C@@H](NC(=O)[C@H](CCCCN)NC(=O)CNC(=O)[C@H](CC(C)C)NC(=O)[C@H](CC(C)C)NC(=O)[C@H](Cc1ccc(O)cc1)NC(=O)CNC(=O)[C@H](C)NC(=O)[C@H](CO)NC(=O)[C@H](CC(N)=O)NC(=O)[C@H](CC(C)C)NC(=O)[C@@H](NC(=O)[C@H](Cc1c[nH]c2ccccc12)NC(=O)CN)[C@@H](C)O)[C@@H](C)CC)C(=O)N[C@@H](CC(C)C)C(=O)O [GWTLNSAGYLLGKINLKALAALAKKIL]
MIC [9]: 3.1 µM (≈ 8.81 µg/mL)
MIC [10]: 3.1 µM (≈ 8.81 µg/mL)
MIC [11]: ≥ 43 µM
MIC [12]: ≥ 86 µM
MIC [13]: ≥ 43 µM
MIC [14]: 3.1 µM (≈ 8.81 µg/mL)
MIC [15]: 5 µM (≈ 14.2 µg/mL)

Structure (SMILES): CC[C@H](C)[C@H](NC(=O)[C@H](CCCCN)NC(=O)[C@H](CCCCN)NC(=O)[C@H](C)NC(=O)[C@H](CC(C)C)NC(=O)[C@H](C)NC(=O)[C@H](C)NC(=O)[C@H](CC(C)C)NC(=O)[C@H](C)NC(=O)[C@@H](N)CCCCN)C(=O)N[C@@H](CC(C)C)C(=O)N[C@@H](CCC(N)=O)C(=O)N[C@@H](CCC(N)=O)C(=O)N[C@@H](CS)C(=O)N[C@@H](CCCN=C(N)N)C(=O)N[C@@H](CCCN=C(N)N)C(=O)N1CCC[C@H]1C(=O)N[C@@H](CC(C)C)C(=O)N[C@@H](Cc1ccc(O)cc1)C(=O)N[C@@H](CS)C(=O)N[C@@H](CCCN=C(N)N)C(=O)N[C@@H](CCCN=C(N)N)C(=O)N[C@@H](CCCN=C(N)N)C(=O)O [KALAALAKKILQQCRRPLYCRRR]
MIC [9]: 3.1 µM (≈ 8.54 µg/mL)
MIC [10]: 6.3 µM (≈ 17.4 µg/mL)
MIC [14]: 3.1 µM (≈ 8.54 µg/mL)

Next, values leading:

MIC (Escherichia coli BL21): 2 µM (≈ 6.09 µg/mL)
MIC [1]: 32 µM (≈ 97.4 µg/mL)
MIC [2]: 0.125 µM (≈ 0.381 µg/mL)
Structure (SMILES): CC[C@H](C)[C@H](NC(=O)[C@H](CCCCN)NC(=O)[C@H](C)NC(=O)[C@H](CCCN=C(N)N)NC(=O)[C@H](CCCCN)NC(=O)CNC(=O)[C@H](CCCCN)NC(=O)[C@H](CCC(=O)O)NC(=O)[C@H](CCC(N)=O)NC(=O)[C@@H](NC(=O)[C@@H](NC(=O)[C@H](CCCCN)NC(=O)[C@H](CCCCN)NC(=O)[C@H](CC(C)C)NC(=O)[C@H](Cc1ccccc1)NC(=O)[C@H](CCC(N)=O)NC(=O)[C@H](CCCN=C(N)N)NC(=O)[C@@H](NC(=O)[C@@H](NC(=O)[C@H](CCC(=O)O)NC(=O)[C@H](CCCCN)NC(=O)CNC(=O)[C@H](C)N)[C@@H](C)O)[C@@H](C)CC)[C@@H](C)O)[C@@H](C)CC)C(=O)N[C@@H](Cc1c[nH]c2ccccc12)C(=O)N[C@@H](Cc1c[nH]c2ccccc12)C(=O)O [AGKETIRQFLKKTIQEKGKRAKIWW]

MIC [9]: 3.1 µM (≈ 10.3 µg/mL)
MIC [10]: 3.1 µM (≈ 10.3 µg/mL)
MIC [14]: 3.1 µM (≈ 10.3 µg/mL)
Structure (SMILES): CSCC[C@H](NC(=O)[C@H](CCCCN)NC(=O)[C@H](Cc1ccccc1)NC(=O)[C@H](CC(N)=O)NC(=O)[C@H](CC(C)C)NC(=O)[C@@H]1CCCN1C(=O)[C@@H](N)CCCN=C(N)N)C(=O)N[C@@H](CC(C)C)C(=O)N[C@@H](CCCN=C(N)N)C(=O)N[C@@H](Cc1ccccc1)C(=O)N[C@@H](Cc1c[nH]c2ccccc12)C(=O)NCC(=O)N[C@@H](CCC(N)=O)C(=O)N[C@@H](CCC(N)=O)C(=O)N[C@@H](CCC(N)=O)C(=O)N[C@@H](CS)C(=O)N[C@@H](CCCN=C(N)N)C(=O)N[C@@H](CCCN=C(N)N)C(=O)N1CCC[C@H]1C(=O)N[C@@H](CC(C)C)C(=O)N[C@@H](Cc1ccc(O)cc1)C(=O)N[C@@H](CS)C(=O)N[C@@H](CCCN=C(N)N)C(=O)N[C@@H](CCCN=C(N)N)C(=O)N[C@@H](CCCN=C(N)N)C(=O)O [RPLNFKMLRFWGQQQCRRPLYCRRR]

MIC [7]: ≥ 174 µM
Structure (SMILES): CC[C@H](C)[C@H](NC(=O)[C@H](C)NC(=O)[C@@H](NC(=O)[C@H](CCCCN)NC(=O)[C@H](CCCCN)NC(=O)[C@H](Cc1cnc[nH]1)NC(=O)[C@@H](NC(=O)[C@@H](N)CCCN=C(N)N)C(C)C)[C@@H](C)CC)C(=O)N[C@@H](CO)C(=O)N[C@H](C(=O)O)C(C)C [RVHKKIAISV]

MIC [7]: 0.11 µM (≈ 0.27 µg/mL)
Structure (SMILES): CC[C@H](C)[C@H](NC(=O)[C@H](CCCN=C(N)N)NC(=O)[C@H](CCCN=C(N)N)NC(=O)[C@@H]1CCCN1C(=O)[C@H](CC(C)C)NC(=O)[C@H](CCCN=C(N)N)NC(=O)[C@@H]1CCCN1C(=O)[C@H](CCCN=C(N)N)NC(=O)[C@@H]1CCCN1C(=O)[C@H](CC(C)C)NC(=O)[C@H](Cc1ccc(O)cc1)NC(=O)[C@@H]1CCCN1C(=O)[C@@H]1CCCN1C(=O)[C@H](CCCCN)NC(=O)[C@H](CC(=O)O)NC(=O)[C@@H](N)C(C)C)C(=O)N[C@@H](Cc1ccc(O)cc1)C(=O)N[C@@H](CC(N)=O)C(=O)N[C@@H](CCCN=C(N)N)C(=O)NCC(=O)O [VDKPPYLPRPRLPRRIYNRG]
